ChEMBL document CHEMBL6134854, “Development of Hydrazide-Based HDAC6 Selective Inhibitors for Treating NLRP3 Inflammasome-Related Diseases” (J Med Chem, 2025)
pIC50: −log10 of the molar value.

Legend:
[1] = test system: L02; assay: Cytotoxicity against HL7702 cells assessed as effect on cell viability at 10 uM incubated for 48 hrs by resazurin reagent based assay; format: toxicity; conditions: human, l02, 48 h
[2] = test system: J774.A1; assay: cells; conditions: Mus musculus, J774.A1, 48 h
[3] = target: T1, Polyamine deacetylase HDAC10 (Homo sapiens, UniProt Q969S8); assay: Inhibition of recombinant HDAC10 (unknown origin) using Ac-Gly-Ala-Lys(AMC) as substrate preincubated for 1 hrs followed by substrate addition and measured after 2 hrs by fluorescence based microplate reader analysis
T1 sequence (Q969S8 whole entry): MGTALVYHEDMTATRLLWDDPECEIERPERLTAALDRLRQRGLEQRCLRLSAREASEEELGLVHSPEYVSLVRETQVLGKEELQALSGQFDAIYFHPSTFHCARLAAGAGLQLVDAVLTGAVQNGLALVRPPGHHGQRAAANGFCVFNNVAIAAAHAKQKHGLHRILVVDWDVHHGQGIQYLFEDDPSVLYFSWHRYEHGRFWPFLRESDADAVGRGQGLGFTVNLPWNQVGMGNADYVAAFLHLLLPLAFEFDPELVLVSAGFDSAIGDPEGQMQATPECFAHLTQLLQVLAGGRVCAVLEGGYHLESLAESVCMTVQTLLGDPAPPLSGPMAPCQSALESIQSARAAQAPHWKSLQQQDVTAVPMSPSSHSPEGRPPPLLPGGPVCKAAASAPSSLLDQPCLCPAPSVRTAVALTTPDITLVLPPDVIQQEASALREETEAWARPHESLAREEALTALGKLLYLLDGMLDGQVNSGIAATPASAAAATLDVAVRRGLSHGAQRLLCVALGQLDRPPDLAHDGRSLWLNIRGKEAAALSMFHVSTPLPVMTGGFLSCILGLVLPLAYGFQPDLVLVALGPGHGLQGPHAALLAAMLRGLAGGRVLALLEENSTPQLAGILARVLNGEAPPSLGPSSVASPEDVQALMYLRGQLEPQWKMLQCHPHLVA

[4] = in vivo; conditions: male, ICR, mouse, iv, 5 mg/kg
[5] = in vivo; conditions: male, ICR, mouse, iv, 5 mg/kg; remark: listed apart in the source
[6] = target: Histone deacetylase 1 (Homo sapiens, UniProt Q13547); assay: Inhibition of recombinant HDAC1 (unknown origin) using Boc-Lys (acetyl)-AMC as substrate preincubated for 1 hrs followed by substrate addition and measured after 2 hrs by fluorescence based microplate reader analysis
Chain of Histone deacetylase 1 (Q13547 whole entry): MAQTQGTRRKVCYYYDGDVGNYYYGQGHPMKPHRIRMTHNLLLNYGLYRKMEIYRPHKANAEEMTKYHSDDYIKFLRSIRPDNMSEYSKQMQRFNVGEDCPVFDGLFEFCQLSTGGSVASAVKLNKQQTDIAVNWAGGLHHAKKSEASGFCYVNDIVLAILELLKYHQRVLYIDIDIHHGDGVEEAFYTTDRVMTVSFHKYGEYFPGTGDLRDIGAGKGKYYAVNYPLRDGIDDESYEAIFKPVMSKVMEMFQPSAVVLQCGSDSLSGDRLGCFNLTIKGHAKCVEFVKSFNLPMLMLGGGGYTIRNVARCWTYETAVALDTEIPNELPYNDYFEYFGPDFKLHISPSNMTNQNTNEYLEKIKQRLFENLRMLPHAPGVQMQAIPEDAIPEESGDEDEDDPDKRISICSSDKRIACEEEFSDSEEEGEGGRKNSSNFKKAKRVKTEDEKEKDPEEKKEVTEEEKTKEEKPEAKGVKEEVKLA

[7] = target: Histone deacetylase 3 (Homo sapiens, UniProt O15379); assay: Inhibition of recombinant HDAC3 (unknown origin) using Boc-Lys (acetyl)-AMC as substrate preincubated for 1 hrs followed by substrate addition and measured after 2 hrs by fluorescence based microplate reader analysis
Chain of Histone deacetylase 3 (O15379 whole entry): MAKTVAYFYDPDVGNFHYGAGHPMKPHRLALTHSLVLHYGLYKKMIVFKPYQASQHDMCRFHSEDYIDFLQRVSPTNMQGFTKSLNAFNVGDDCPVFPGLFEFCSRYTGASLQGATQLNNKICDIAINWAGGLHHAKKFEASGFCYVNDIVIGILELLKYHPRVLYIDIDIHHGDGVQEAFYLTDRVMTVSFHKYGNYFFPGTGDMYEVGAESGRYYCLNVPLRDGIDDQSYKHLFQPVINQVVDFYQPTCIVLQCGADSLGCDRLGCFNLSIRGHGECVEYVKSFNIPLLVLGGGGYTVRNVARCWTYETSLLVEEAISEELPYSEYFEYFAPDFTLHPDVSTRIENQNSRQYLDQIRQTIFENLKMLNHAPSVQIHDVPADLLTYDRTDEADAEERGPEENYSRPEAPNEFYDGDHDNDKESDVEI

[8] = target: Histone deacetylase 2 (Homo sapiens, UniProt Q92769); assay: Inhibition of recombinant HDAC2 (unknown origin) using Boc-Lys (acetyl)-AMC as substrate preincubated for 1 hrs followed by substrate addition and measured after 2 hrs by fluorescence based microplate reader analysis
Chain of Histone deacetylase 2 (Q92769 whole entry): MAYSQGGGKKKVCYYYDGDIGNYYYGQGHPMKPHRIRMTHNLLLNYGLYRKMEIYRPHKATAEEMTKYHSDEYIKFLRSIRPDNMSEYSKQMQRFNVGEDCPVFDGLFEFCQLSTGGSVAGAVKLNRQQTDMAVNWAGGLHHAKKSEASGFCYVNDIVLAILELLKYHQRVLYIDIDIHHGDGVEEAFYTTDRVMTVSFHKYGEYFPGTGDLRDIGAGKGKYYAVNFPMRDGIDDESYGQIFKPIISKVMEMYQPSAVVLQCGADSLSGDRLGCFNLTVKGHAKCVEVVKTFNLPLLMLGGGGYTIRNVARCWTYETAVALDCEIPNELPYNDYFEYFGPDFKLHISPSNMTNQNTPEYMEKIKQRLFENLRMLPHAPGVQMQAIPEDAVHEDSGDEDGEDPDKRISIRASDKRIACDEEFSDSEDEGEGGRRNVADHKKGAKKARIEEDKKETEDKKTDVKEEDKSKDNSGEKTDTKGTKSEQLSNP

[9] = target: T2, Histone deacetylase 11 (Homo sapiens, UniProt Q96DB2); assay: Inhibition of recombinant HDAC11 (unknown origin) using ETDKacyl-Kmyr as substrate preincubated for 1 hrs followed by substrate addition and measured after 2 hrs by fluorescence based microplate reader analysis
T2 sequence (Q96DB2 whole entry): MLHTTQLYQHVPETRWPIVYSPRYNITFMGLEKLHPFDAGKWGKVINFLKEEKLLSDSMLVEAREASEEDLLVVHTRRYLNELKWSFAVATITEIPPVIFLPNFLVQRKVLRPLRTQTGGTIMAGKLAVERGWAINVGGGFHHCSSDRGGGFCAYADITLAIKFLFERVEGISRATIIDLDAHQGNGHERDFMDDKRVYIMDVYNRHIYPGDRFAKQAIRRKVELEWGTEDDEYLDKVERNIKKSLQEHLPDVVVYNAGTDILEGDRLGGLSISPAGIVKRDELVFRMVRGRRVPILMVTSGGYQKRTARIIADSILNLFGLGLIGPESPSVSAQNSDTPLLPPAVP

[10] = target: T3, Histone deacetylase 7 (Homo sapiens, UniProt Q8WUI4); assay: Inhibition of recombinant HDAC7 (unknown origin) using Boc-Lys (trifluoroacetyl)AMC as substrate preincubated for 1 hrs followed by substrate addition and measured after 2 hrs by fluorescence based microplate reader analysis
T3 sequence (Q8WUI4 whole entry): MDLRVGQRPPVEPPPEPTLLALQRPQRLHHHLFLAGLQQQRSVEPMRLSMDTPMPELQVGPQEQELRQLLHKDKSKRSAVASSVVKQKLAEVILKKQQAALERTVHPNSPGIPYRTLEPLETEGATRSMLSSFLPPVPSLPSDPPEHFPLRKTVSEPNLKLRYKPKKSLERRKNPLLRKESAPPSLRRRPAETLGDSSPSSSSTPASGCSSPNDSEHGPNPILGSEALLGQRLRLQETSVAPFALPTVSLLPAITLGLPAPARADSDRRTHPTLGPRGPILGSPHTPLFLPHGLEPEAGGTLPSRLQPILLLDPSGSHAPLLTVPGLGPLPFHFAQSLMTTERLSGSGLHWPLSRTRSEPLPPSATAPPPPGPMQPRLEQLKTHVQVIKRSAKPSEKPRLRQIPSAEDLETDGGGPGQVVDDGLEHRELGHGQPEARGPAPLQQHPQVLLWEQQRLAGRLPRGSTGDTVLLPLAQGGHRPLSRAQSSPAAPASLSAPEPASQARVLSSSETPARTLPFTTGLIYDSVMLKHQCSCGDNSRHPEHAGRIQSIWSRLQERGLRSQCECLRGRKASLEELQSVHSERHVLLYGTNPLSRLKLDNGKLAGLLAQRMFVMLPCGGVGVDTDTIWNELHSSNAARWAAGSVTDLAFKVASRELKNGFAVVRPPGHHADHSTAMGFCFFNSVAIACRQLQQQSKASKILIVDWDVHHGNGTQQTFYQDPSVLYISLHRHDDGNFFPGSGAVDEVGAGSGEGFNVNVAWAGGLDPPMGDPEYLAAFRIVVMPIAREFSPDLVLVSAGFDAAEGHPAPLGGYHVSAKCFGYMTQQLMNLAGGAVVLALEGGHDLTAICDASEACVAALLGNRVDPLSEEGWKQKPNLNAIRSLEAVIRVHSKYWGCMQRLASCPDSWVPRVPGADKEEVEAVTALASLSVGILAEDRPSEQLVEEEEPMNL

[11] = target: T4, Histone deacetylase 8 (Homo sapiens, UniProt Q9BY41); assay: Inhibition of recombinant HDAC8 (unknown origin) using Boc-Lys (trifluoroacetyl)AMC as substrate preincubated for 1 hrs followed by substrate addition and measured after 2 hrs by fluorescence based microplate reader analysis
T4 sequence (Q9BY41 whole entry): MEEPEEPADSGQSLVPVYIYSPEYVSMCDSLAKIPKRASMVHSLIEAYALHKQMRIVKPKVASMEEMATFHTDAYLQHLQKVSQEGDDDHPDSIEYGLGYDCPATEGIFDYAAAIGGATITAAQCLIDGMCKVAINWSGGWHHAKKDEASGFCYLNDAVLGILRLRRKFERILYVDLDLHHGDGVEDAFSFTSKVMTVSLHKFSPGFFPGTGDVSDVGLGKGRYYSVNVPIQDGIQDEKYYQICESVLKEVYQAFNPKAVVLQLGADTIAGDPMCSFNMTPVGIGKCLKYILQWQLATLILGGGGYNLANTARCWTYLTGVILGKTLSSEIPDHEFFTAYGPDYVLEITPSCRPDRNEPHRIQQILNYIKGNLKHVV

[12] = target: Histone deacetylase 9 (Homo sapiens, UniProt Q9UKV0); assay: Inhibition of recombinant HDAC9 (unknown origin) using Boc-Lys (trifluoroacetyl)AMC as substrate preincubated for 1 hrs followed by substrate addition and measured after 2 hrs by fluorescence based microplate reader analysis
Chain of Histone deacetylase 9 (Q9UKV0 whole entry): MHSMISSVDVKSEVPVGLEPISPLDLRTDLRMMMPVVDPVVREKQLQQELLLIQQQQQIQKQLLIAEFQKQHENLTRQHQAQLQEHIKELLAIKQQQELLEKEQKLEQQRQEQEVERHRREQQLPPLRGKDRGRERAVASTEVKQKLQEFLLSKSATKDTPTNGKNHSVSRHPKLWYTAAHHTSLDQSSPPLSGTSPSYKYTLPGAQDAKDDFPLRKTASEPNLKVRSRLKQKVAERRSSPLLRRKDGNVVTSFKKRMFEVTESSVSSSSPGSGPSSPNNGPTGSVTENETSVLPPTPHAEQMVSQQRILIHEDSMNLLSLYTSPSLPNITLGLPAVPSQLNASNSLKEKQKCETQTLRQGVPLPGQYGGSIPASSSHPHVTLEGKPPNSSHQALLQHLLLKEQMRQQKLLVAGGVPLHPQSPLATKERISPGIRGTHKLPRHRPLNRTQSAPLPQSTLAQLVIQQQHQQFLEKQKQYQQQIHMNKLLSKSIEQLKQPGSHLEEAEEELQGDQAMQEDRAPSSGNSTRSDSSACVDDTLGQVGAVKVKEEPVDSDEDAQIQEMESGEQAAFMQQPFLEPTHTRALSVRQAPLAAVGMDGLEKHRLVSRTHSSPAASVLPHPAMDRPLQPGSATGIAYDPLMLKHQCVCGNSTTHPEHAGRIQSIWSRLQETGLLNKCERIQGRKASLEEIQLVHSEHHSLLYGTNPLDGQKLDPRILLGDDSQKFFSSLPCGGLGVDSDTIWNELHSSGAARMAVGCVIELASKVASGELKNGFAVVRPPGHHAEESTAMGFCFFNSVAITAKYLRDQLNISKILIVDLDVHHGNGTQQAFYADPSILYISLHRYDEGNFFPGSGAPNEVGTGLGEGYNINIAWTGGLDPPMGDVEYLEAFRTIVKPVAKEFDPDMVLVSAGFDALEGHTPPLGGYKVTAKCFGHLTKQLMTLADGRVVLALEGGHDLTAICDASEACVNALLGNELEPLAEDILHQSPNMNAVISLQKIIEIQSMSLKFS

[13] = target: Histone deacetylase 5 (Homo sapiens, UniProt Q9UQL6); assay: Inhibition of recombinant HDAC5 (unknown origin) using Boc-Lys (trifluoroacetyl)AMC as substrate preincubated for 1 hrs followed by substrate addition and measured after 2 hrs by fluorescence based microplate reader analysis
Chain of Histone deacetylase 5 (Q9UQL6 whole entry): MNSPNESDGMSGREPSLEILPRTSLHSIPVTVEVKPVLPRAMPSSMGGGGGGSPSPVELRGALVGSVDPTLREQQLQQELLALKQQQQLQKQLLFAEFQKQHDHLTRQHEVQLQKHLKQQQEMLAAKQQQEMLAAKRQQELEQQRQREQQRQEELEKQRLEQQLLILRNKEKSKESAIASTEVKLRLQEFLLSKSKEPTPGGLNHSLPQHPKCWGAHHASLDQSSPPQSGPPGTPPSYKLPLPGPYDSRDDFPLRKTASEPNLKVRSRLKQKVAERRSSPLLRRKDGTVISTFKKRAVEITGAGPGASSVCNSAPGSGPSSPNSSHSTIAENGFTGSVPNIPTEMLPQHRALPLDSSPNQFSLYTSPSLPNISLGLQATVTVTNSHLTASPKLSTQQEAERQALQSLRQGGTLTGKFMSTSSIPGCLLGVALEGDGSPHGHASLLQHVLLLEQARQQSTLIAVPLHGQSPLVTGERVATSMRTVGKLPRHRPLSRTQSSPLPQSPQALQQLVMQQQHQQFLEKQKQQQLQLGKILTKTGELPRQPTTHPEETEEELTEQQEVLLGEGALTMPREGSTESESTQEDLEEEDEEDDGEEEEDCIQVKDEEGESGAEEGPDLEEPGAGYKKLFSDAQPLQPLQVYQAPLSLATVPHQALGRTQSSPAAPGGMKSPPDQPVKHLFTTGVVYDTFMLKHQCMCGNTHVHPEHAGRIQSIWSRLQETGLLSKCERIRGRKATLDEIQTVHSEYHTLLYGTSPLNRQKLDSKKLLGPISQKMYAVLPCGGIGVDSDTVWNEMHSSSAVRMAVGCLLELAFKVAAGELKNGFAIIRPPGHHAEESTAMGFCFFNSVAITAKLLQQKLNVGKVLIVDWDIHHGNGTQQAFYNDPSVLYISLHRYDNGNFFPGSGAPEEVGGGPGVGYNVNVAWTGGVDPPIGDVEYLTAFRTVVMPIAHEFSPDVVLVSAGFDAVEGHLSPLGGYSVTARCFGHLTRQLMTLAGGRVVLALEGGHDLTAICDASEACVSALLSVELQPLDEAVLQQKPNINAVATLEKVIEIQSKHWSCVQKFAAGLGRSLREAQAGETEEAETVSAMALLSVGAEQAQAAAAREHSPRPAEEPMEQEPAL

[14] = target: Histone deacetylase 4 (Homo sapiens, UniProt P56524); assay: Inhibition of recombinant HDAC4 (unknown origin) using Boc-Lys (trifluoroacetyl)AMC as substrate preincubated for 1 hrs followed by substrate addition and measured after 2 hrs by fluorescence based microplate reader analysis
Chain of Histone deacetylase 4 (P56524 whole entry): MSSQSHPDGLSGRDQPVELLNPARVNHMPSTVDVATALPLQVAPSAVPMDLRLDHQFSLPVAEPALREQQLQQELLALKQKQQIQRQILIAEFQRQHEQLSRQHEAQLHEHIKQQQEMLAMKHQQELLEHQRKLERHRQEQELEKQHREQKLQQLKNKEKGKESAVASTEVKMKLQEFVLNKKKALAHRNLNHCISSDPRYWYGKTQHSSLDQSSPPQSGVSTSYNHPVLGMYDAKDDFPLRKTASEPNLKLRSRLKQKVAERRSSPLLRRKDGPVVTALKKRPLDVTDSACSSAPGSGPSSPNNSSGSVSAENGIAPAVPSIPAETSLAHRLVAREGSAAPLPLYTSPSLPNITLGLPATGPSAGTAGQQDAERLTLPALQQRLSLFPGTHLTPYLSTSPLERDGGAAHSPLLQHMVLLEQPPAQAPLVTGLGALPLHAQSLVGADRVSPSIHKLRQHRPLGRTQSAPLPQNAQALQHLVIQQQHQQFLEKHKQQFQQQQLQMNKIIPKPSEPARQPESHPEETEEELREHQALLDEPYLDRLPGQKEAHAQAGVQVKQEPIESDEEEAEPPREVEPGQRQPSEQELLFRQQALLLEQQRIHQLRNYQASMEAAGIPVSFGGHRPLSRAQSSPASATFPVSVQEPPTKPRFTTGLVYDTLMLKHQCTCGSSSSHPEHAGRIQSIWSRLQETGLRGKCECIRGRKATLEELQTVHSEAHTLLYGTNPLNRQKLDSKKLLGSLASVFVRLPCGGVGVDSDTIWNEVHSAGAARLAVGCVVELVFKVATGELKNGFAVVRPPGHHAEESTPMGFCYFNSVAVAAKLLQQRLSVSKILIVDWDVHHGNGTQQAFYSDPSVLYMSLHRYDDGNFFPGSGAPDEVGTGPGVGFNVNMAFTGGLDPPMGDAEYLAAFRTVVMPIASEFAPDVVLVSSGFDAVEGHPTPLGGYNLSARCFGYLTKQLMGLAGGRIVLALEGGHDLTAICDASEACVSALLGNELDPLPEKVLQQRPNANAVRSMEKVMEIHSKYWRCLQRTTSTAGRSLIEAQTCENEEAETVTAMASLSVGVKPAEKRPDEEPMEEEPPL

[15] = test system: L02; assay: Cytotoxicity against HL7702 cells assessed as effect on cell viability incubated for 48 hrs by resazurin reagent based assay; format: toxicity; conditions: human, l02, 48 h

Compound | pIC50 [6] | pIC50 [7] | pIC50 [8] | further results
CCNNC(=O)c1ccc(CN2c3ccccc3C=Cc3ccncc32)cc1 |  |  |  | Activity [1]: Toxic; pIC50 [2]: 4.59; pIC50 [3]: < 5.00; Vd at 24 h [4]: 3.51 L/kg; clearance at 24 h [5]: 30.6 mL/min/kg
CCNNC(=O)c1cc(F)c(CN2c3ccccc3C=Cc3ccncc32)c(F)c1 | < 5.00 | < 5.00 | < 5.00 | 
CCNNC(=O)c1cc(F)c(CN2c3ccccc3Sc3cccnc32)cc1F | < 5.00 | < 5.00 | < 5.00 | 
CCNNC(=O)c1cc(F)c(CN2c3ccccc3C=Cc3ccncc32)cc1F | < 5.00 | 5.15 | < 5.00 | pIC50 [9]: < 5.00; pIC50 [10]: < 5.00; pIC50 [3]: < 5.00; pIC50 [11]: < 5.00; pIC50 [12]: < 5.00; pIC50 [13]: < 5.00; pIC50 [14]: < 5.00
CCNNC(=O)c1ccc(CN2c3ccccc3C=Cc3ccncc32)c(F)c1 | 5.06 | 5.43 | < 5.00 | pIC50 [9]: < 5.00; pIC50 [10]: < 5.00; pIC50 [3]: < 5.00; pIC50 [11]: < 5.00; pIC50 [12]: 5.64; pIC50 [13]: < 5.00; pIC50 [14]: < 5.00
O=C(NNCCF)c1ccc(CN2c3ccccc3C=Cc3ccncc32)cc1 | < 5.00 | 5.20 | < 5.00 | 
CCNNC(=O)c1cc(F)c(Cn2c3ccccc3c3ccccc32)cc1F | < 5.00 | < 5.00 | < 5.00 | 
CCNNC(=O)c1cc(F)c(CN2c3ccccc3C=Cc3ccccc32)cc1F | < 5.00 | < 5.00 | < 5.00 | 
CCNNC(=O)c1cc(F)c(Cn2c3ccccc3c3cccnc32)cc1F | < 5.00 | < 5.00 | < 5.00 | 
CCNNC(=O)c1cc(F)c(CNc2cccc3cccnc23)cc1F | < 5.00 | < 5.00 | < 5.00 | 
CCNNC(=O)c1ccc(CN2c3ccccc3C=Cc3ccncc32)cc1F | < 5.00 | 5.75 | < 5.00 | 
O=C(CCCCCCNC(=O)c1cnc(N(c2ccccc2)c2ccccc2)nc1)NO [RICOLINOSTAT] |  |  |  | Activity [15]: Toxic
